Laboratory results reported in ChEMBL document CHEMBL1140594, “Farnesyltransferase pharmacophore model derived from diverse classes of inhibitors” (Bioorg Med Chem Lett, 2007).

Assay: Inhibition of FTase

IC50 [nM] | SMILES
41 | N#Cc1ccc(Cn2ccnc2)cc1Oc1cccc(C2CCCCNC2=O)c1 (stereo not given)
1.8 | CC[C@@H](C)[C@@H](CO[C@@H](Cc1ccccc1)C(=O)N[C@@H](CCS(C)(=O)=O)C(=O)O)NC[C@@H](N)CS
2.4 | CN1CCN(C(=O)c2cn(Cc3cncn3Cc3ccc4c(c3)OCO4)cc2-c2cccc3ccccc23)CC1
700 | Fc1ccc2c(c1)[C@@H](OCc1ccc(Cl)cc1Cl)[C@@H](Cn1ccnc1)S2
720000 | CN1CCC(C2c3ccccc3CCc3cccnc32)CC1 (stereo not given)
40 | CC(C)CCCC(C)C1CCC2C3C(CC[C@]12C)[C@@](C)(C[C@@H](CC(=O)O)C(=O)O)C(=O)C[C@@H]3C (stereo not given in full)
5 | N#Cc1ccc(Cn2cncc2CN2CCN(c3ccccc3)C(=O)C2)cc1
5 | Cn1cncc1C(OCc1ccc(C#N)cc1NC(=O)c1ccccc1)c1ccc(C#N)cc1 (stereo not given)
0.15 | CC[C@@H](C)[C@@H](CN(CC(=O)N[C@@H](CCSC)C(=O)O)Cc1cccc2ccccc12)NC(=O)Cc1cncn1Cc1ccc(C#N)cc1
18 | CSCC[C@H](NC(=O)c1cccc2cc(NC[C@H](N)CS)ccc12)C(=O)O
500 | COC(=O)[C@H](CCSC)NC(=O)c1cccc2cc(NC[C@H](N)CS)ccc12
40000 | COc1ccccc1CC(=O)N1C[C@@H]2[C@@H]3CC[C@@](c4ccccc4)(c4ccccc43)[C@@H]2C1
5800 | O=C1CN(Cc2cncn2Cc2cccc(Oc3ccccc3)c2)CCN1c1ccc(C(F)(F)F)cc1
1 | N#Cc1ccc(Cn2cncc2CN2CCN(c3cccc(Cl)c3)C(=O)C2)cc1Oc1ccc2ccccc2c1
74 | CC[C@@H](C)[C@@H](CN(CC(=O)N[C@@H](CCSC)C(=O)O)Cc1cccc2ccccc12)NC(=O)Cc1cn(Cc2ccncc2)cn1
21 | CCCC[C@H]1CN(C(=O)c2cccc3ccccc23)CCN1Cc1cncn1Cc1ccc(C#N)cc1
270000 | Cc1cccc2c1[C@@H](O)[C@@H](Cn1ccnc1)S2
0.44 | CCCC[C@H]1CN(c2ccc(Cl)cc2)C(=O)CN1Cc1cncn1Cc1ccc(C#N)cc1
1.5 | CC[C@]1(c2cccc(Oc3cc([C@@](C)(N)c4cncn4C)ccc3C#N)c2)CCCCN(C)C1=O
0.06 | CC[C@@]1(c2cccc(Oc3cc([C@@](C)(N)c4cncn4C)ccc3C#N)c2)CCCCN(C)C1=O
8 | C=C(C(=O)N1C[C@H]2[C@@]3(c4ccc(C)cc4)CC[C@H](c4ccccc43)[C@@]2(C(=O)O)C1)c1ccccc1OC
240 | CC[C@@H](C)[C@@H](CO[C@@H](Cc1ccccc1)C(=O)N[C@@H](CCS(C)(=O)=O)C(=O)OC)NC[C@@H](N)CS

SMILES | IC50 [nM]
CC(=O)OCC(=O)[C@@]1(O)C(C)CC2C3CCC4=CC(=O)C=C[C@]4(C)C3=CC[C@@]21C (stereo not given in full) | 40000
N#Cc1ccc2cc1Oc1ccc3cccc(c3c1)N1CCN(CC1=O)Cc1cncn1C2 | 0.1
O=C(Cc1ccncc1)N1CCN([C@H]2c3ccc(Cl)cc3CCc3cccnc32)CC1 | 140
